Experimental findings from patent publication US11147272B2, “Pyridone compounds and agricultural and horticultural fungicides comprising the same as active ingredients” (MITSUI CHEMICALS AGRO, INC., priority 2017, dated 2021) are described below.

The test system of test [1] is Puccinia recondita. Briefly: Test Example E: Brown rust on wheat. The test is classed as in vivo. To be noted: Brown rust on wheat; control value class.
Test [2] relates to Phytophthora infestans. Briefly: whole plant or invertebrate. The format is in vivo. Particulars: Late blight on tomato; control value class.
Test [3] relates to Alternaia brassicicola. Briefly: Test Example C: Alternaria sooty spot on cabbage. The format is in vivo. Particulars: Alternaria sooty spot on cabbage; control value class. An excerpt:
Seeds of a test plant (cabbage variety: Shikidori) were planted and cultivated until the cotyledons extended.
<Control Value> Control value=100{1−(n/3)}

Test [4] concerns Magnaporthe grisea. Briefly: whole plant or invertebrate. The test is classed as in vivo. Particulars: Blast on rice; control value class.
Test [5] concerns Botrytis cinerea. Briefly: Test Example B: Gray mold on tomato. Particulars: Gray mold on tomato; control value class.
Protocol: Seeds of a test plant (tomato variety: Oogata Fukuju) were planted and cultivated until three to five first leaves (true leaves) appeared. In the test, the inventive compounds were dissolved into dimethyl sulfoxide-methanol mixture solution (volume ratio: 9/1), and the resultant solutions were diluted with well water to a concentration of 250 ppm to obtain the drug solutions. The drug solutions were sprayed to the test plant (2.5 ml/pot). After the drug solutions dried, a conidial suspension (4-8×10^5 conidia/ml) of Botrytis cinerea was inoculated to the plant by spraying. After the inoculation, the plant was kept in a mist chamber at room temperature of 20 to 23° C. for about 48 hours to promote the onset of disease. The degrees of disease development were investigated 2 to 3 days after the inoculation, and the effectiveness of the drug solutions was evaluated.
(§1) In Test Examples described above, the degrees of disease development were evaluated in increments of 0.05 from 0 (as no incidence of disease) to 3 (as the degree of disease development in an untreated plant group). Further, control values were calculated using the following equation based on the degree of disease development.
(§2) n=Degree of disease development in each treated group
In the table, H: more than 50% control value, L: 50% or less control value, and nt: not tested.
The test system of test [6] is Colletotrichum orbiculare. Briefly: Test Example H: Anthracnose on cucumber. To be noted: Anthracnose on cucumber; 250 ppm spray, 6 to 10 days after inoculation.
Test [7] deals with Plasmopara viticola. Briefly: Test Example G: Downy mildew on vine. Particulars: Downy mildew on vine; 250 ppm spray, 7 to 10 days after inoculation.
Protocol: Seeds of a test plant (grape variety: Neomuscat) were planted and cultivated until three to four first leaves appeared. In the test, the inventive compounds were dissolved into dimethyl sulfoxide-methanol mixture solution (volume ratio: 9/1), and the resultant solutions were diluted with well water to a concentration of 250 ppm to obtain the drug solutions. The drug solutions were sprayed to the test plant (2.5 ml/pot). After the drug solutions dried, a zoosporangia suspension (1-2×10^4 zoosporangia/ml) of Plasmopara viticola was inoculated to the plant by spraying. After the inoculation, the plant was kept in a mist chamber at room temperature of 20° C. for about 24 hours to promote the onset of disease. The degrees of disease development were investigated 7 to 10 days after the inoculation, and the effectiveness of the drug solutions was evaluated.
as §1, §2
Test [8] deals with Blumeria graminis f. sp. hordei. As to the kind of experiment: Test Example D: Powdery mildew on barley. Particulars: Powdery mildew on barley; control value class.
Protocol: Seeds of a test plant (barley variety: Akashinriki) were planted and cultivated until the first leaves appeared. In the test, the inventive compounds were dissolved into dimethyl sulfoxide-methanol mixture solution (volume ratio: 9/1), and the resultant solutions were diluted with well water to a concentration of 250 ppm to obtain the drug solutions. The drug solutions were sprayed to the test plant (2.5 ml/pot). After the drug solutions dried, conidia of Blumeria graminis f. sp. hordei were inoculated to the plant by shaking off. The degrees of disease development were investigated 6 to 10 days after the inoculation, and the effectiveness of the drug solutions was evaluated.
as §1, §2

On to `CCCOC(C)(c1cc(Cl)c(=O)n(CC)c1-c1ccc(C#N)cc1)C(C)C` (stereo not shown) [compound 252], for which the “Test E control value” in test [1] was “L (50% or less control value)”. In addition, in test [2], the “Test F control value” is on record as “L (50% or less control value)”. Further, the “Test C control value” in test [3] was “L (50% or less control value)”. In test [4], the “Test A control value” is on record as “H (more than 50% control value)”. In test [5], the “Test B control value” is recorded as “L (50% or less control value)”. The “Test H control value” in test [6] was “L (50% or less control value)”. Besides, the “Test G control value” in test [7] is on record as “L (50% or less control value)”. Also, the “Test D control value” in test [8] was “L (50% or less control value)”.

On to `CCn1c(-c2ccc(C#N)cc2)c(C(C)(F)C(C)C)cc(Cl)c1=O` (stereo not shown) [compound 253], for which the “Test E control value” in test [1] was “L (50% or less control value)”. Moreover, the “Test F control value” in test [2] was “L (50% or less control value)”. The “Test C control value” in test [3] is “H (more than 50% control value)”. In test [4], the “Test A control value” was “L (50% or less control value)”. Also, in test [5], the “Test B control value” is “H (more than 50% control value)”. The “Test H control value” in test [6] is listed as “L (50% or less control value)”. The “Test G control value” in test [7] is “L (50% or less control value)”. The “Test D control value” in test [8] is “L (50% or less control value)”.

With `CCn1c(-c2ccc(O)cc2Cl)c(CC(C)C)cc(Cl)c1=O` [compound 254], the “Test E control value” in test [1] was “H (more than 50% control value)”. Also, the “Test F control value” in test [2] was “H (more than 50% control value)”. In addition, in test [3], the “Test C control value” is reported as “H (more than 50% control value)”. In test [4], the “Test A control value” is given as “L (50% or less control value)”. Moreover, the “Test B control value” in test [5] was “H (more than 50% control value)”. Besides, in test [6], the “Test H control value” was “H (more than 50% control value)”. Further, the “Test G control value” in test [7] is “L (50% or less control value)”. For the same molecule, in test [8], the “Test D control value” is on record as “L (50% or less control value)”.

Consider `CCn1c(-c2ccccc2F)c(CC(C)C)cc(Cl)c1=O` [compound 255], for which the “Test E control value” in test [1] is “H (more than 50% control value)”. Further, in test [2], the “Test F control value” was “L (50% or less control value)”. The “Test C control value” in test [3] was “H (more than 50% control value)”. Besides, in test [4], the “Test A control value” is on record as “H (more than 50% control value)”. In addition, the “Test B control value” in test [5] is “H (more than 50% control value)”. Besides, the “Test H control value” in test [6] is listed as “H (more than 50% control value)”. Further, the “Test G control value” in test [7] was “L (50% or less control value)”. In test [8], the “Test D control value” is recorded as “H (more than 50% control value)”.

`CCOC(C)(c1cc(Cl)c(=O)n(CC)c1-c1c(F)cc(F)cc1F)C1CCCC1` (stereo not shown) [compound 256]: the “Test E control value” in test [1] is listed as “H (more than 50% control value)”. Also, in test [2], the “Test F control value” is given as “L (50% or less control value)”. For the same molecule, the “Test C control value” in test [3] was “L (50% or less control value)”. In addition, the “Test A control value” in test [4] is “L (50% or less control value)”. Besides, the “Test B control value” in test [5] is listed as “L (50% or less control value)”. Further, the “Test H control value” in test [6] was “L (50% or less control value)”. In addition, the “Test G control value” in test [7] is on record as “H (more than 50% control value)”. In test [8], the “Test D control value” was “H (more than 50% control value)”.

In the case of `CCCOC(C)(c1cc(Cl)c(=O)n(CC)c1-c1c(F)cc(F)cc1F)C1CCCC1` (stereo not shown) [compound 257], the “Test E control value” in test [1] is on record as “L (50% or less control value)”. In addition, the “Test F control value” in test [2] was “L (50% or less control value)”. For the same molecule, the “Test C control value” in test [3] is given as “H (more than 50% control value)”. In test [4], the “Test A control value” is given as “L (50% or less control value)”. The “Test B control value” in test [5] is “L (50% or less control value)”. For the same molecule, the “Test H control value” in test [6] is on record as “H (more than 50% control value)”. Also, the “Test G control value” in test [7] is on record as “L (50% or less control value)”. Further, the “Test D control value” in test [8] was “L (50% or less control value)”.

Take `CCn1c(-c2c(F)cc(F)cc2F)c(C(O)C2CC2)cc(Cl)c1=O` (stereo not shown) [compound 258]: the “Test E control value” in test [1] is on record as “H (more than 50% control value)”. For the same molecule, the “Test F control value” in test [2] is listed as “L (50% or less control value)”. In addition, in test [3], the “Test C control value” is listed as “H (more than 50% control value)”. The “Test A control value” in test [4] is listed as “H (more than 50% control value)”. For the same molecule, the “Test B control value” in test [5] is “H (more than 50% control value)”. Also, the “Test H control value” in test [6] is reported as “H (more than 50% control value)”. The “Test G control value” in test [7] is on record as “H (more than 50% control value)”. For the same molecule, in test [8], the “Test D control value” was “H (more than 50% control value)”.

With `CCn1c(-c2c(F)cc(F)cc2F)c(C(OC(C)=O)C2CC2)cc(Cl)c1=O` (stereo not shown) [compound 259], the “Test E control value” in test [1] is “H (more than 50% control value)”. In test [2], the “Test F control value” is given as “L (50% or less control value)”. Besides, the “Test C control value” in test [3] is reported as “H (more than 50% control value)”. The “Test A control value” in test [4] is on record as “H (more than 50% control value)”. In addition, the “Test B control value” in test [5] is given as “H (more than 50% control value)”. For the same molecule, the “Test H control value” in test [6] is recorded as “H (more than 50% control value)”. The “Test G control value” in test [7] was “H (more than 50% control value)”. Also, the “Test D control value” in test [8] is reported as “H (more than 50% control value)”.

As to `CCn1c(-c2c(F)cc(F)cc2F)c(C(=O)C2CC2)cc(Cl)c1=O` [compound 260], in test [1], the “Test E control value” is listed as “H (more than 50% control value)”. Further, the “Test F control value” in test [2] is recorded as “H (more than 50% control value)”. In addition, the “Test C control value” in test [3] is “H (more than 50% control value)”. Besides, the “Test A control value” in test [4] is “H (more than 50% control value)”. Moreover, the “Test B control value” in test [5] is on record as “H (more than 50% control value)”. Moreover, the “Test H control value” in test [6] is listed as “H (more than 50% control value)”. In test [7], the “Test G control value” is on record as “L (50% or less control value)”. Besides, the “Test D control value” in test [8] is recorded as “H (more than 50% control value)”.

Consider `CCn1c(-c2c(F)cc(F)cc2F)c(C(C)(O)C2CC2)cc(Cl)c1=O` (stereo not shown) [compound 261], for which the “Test E control value” in test [1] is “H (more than 50% control value)”. Further, the “Test F control value” in test [2] is given as “L (50% or less control value)”. For the same molecule, in test [3], the “Test C control value” was “H (more than 50% control value)”. For the same molecule, in test [4], the “Test A control value” is recorded as “H (more than 50% control value)”. For the same molecule, the “Test B control value” in test [5] was “H (more than 50% control value)”. Moreover, the “Test H control value” in test [6] was “H (more than 50% control value)”. In addition, the “Test G control value” in test [7] was “H (more than 50% control value)”. Also, in test [8], the “Test D control value” is on record as “H (more than 50% control value)”.

`CCn1c(-c2ccccc2Cl)c(CC(C)C)ccc1=O` [compound 262]: the “Test E control value” in test [1] is given as “H (more than 50% control value)”. In test [2], the “Test F control value” was “L (50% or less control value)”. Besides, in test [3], the “Test C control value” is on record as “H (more than 50% control value)”. In addition, the “Test A control value” in test [4] is given as “L (50% or less control value)”. The “Test B control value” in test [5] is given as “H (more than 50% control value)”. For the same molecule, the “Test H control value” in test [6] is given as “H (more than 50% control value)”. For the same molecule, the “Test G control value” in test [7] was “L (50% or less control value)”. For the same molecule, the “Test D control value” in test [8] is “H (more than 50% control value)”.

Regarding `CCc1cc(F)ccc1-c1c(CC(C)C)cc(Cl)c(=O)n1CC` [compound 263], the “Test E control value” in test [1] is given as “H (more than 50% control value)”. Also, the “Test F control value” in test [2] was “L (50% or less control value)”. The “Test C control value” in test [3] is recorded as “H (more than 50% control value)”. Besides, in test [4], the “Test A control value” is “H (more than 50% control value)”. Moreover, the “Test B control value” in test [5] is given as “H (more than 50% control value)”. In addition, the “Test H control value” in test [6] is recorded as “H (more than 50% control value)”. Moreover, in test [7], the “Test G control value” is on record as “H (more than 50% control value)”. For the same molecule, the “Test D control value” in test [8] is on record as “H (more than 50% control value)”.

In the case of `CCn1c(-c2ccccc2Cl)c(CC(C)C)cc(Br)c1=O` [compound 264], the “Test E control value” in test [1] is “H (more than 50% control value)”. For the same molecule, in test [2], the “Test F control value” is recorded as “L (50% or less control value)”. In test [3], the “Test C control value” was “H (more than 50% control value)”. In addition, the “Test A control value” in test [4] is reported as “L (50% or less control value)”. Moreover, the “Test B control value” in test [5] is recorded as “H (more than 50% control value)”. Besides, in test [6], the “Test H control value” was “H (more than 50% control value)”. The “Test G control value” in test [7] is “L (50% or less control value)”. In test [8], the “Test D control value” is “H (more than 50% control value)”.

Regarding `CCn1c(-c2ccccc2Cl)c(CC(C)C)cc(Cl)c1=O` [compound 265], the “Test E control value” in test [1] is recorded as “H (more than 50% control value)”. Also, the “Test F control value” in test [2] is “L (50% or less control value)”. The “Test C control value” in test [3] is recorded as “H (more than 50% control value)”. Moreover, the “Test A control value” in test [4] was “H (more than 50% control value)”. Further, the “Test B control value” in test [5] is “H (more than 50% control value)”. For the same molecule, in test [6], the “Test H control value” is given as “H (more than 50% control value)”. Further, in test [7], the “Test G control value” is “H (more than 50% control value)”. Moreover, the “Test D control value” in test [8] is given as “H (more than 50% control value)”.
